# Tests used:
# HepG2 cells [1] = test: cell viability, tryphan blue staining; type: cell-based, human; details: 1.3 nM
# Method: Cell viability was determined with 0.4% tryphan blue (Sigma-Aldrich, ON) staining and calculated using the following formula: % Cell Viability=(number of unstained (living) cells/Total number of cells)×100.
# The next question was whether this amount of human resistin is toxic to hepatocytes. Tryphan blue staining of HepG2 cells upon 50 ng/mL of resistin treatment to determine cell viability was performed.
# HepG2 cells [2] = test: immunoblotting for LDL receptor and PCSK9 in HepG2 cells
# Method: Cells were propagated in 10% FBS-containing DMEM supplemented with 1% penicillin-streptomycin and 0.06% L-glutamine (584 mg/L) at 37° C., 5% CO2. During treatment experiments with human recombinant resistin (Calbiochem, UK) and/or lovastatin (Sigma, Mo.), the media was changed to 1% FBS-containing DMEM. All of the experiments to follow were performed at least three times and representative results are shown. Cells were stimulated with resistin at various doses (0, 10, 25, 50, and 100 ng/mL) for 24 hours or with a single dose at 50 ng/mL resistin. In other experiments, the microsomal triglyceride transfer protein (MTP) inhibitor, CP-346086, was administered at 1.3 nM, either alone or together with resistin (50 ng/mL) for 24 hours. Lovastatin was administered at 1 to 5 μM for 24 hours to stimulate the cells, either alone or in combination with resistin (50 ng/mL). Unless otherwise indicated, all experiments were performed in triplicate in three independent experiments.
# Cell lysates collected with RIPA buffer (50 mM Tris, 150 mM sodium chloride, 1% NP-40, 12 mM sodium deoxycholate, 3.5 mM SDS, pH 7.4) and protease inhibitor cocktail (Roche Diagnostics, QC) were analyzed for human LDL receptor and PCSK9 as previously described (Rashid et al. Proc Nall Acad Sci U S A 2005; 102:5374-9). Equivalent amounts of total protein, determined by Bradford reaction was subjected to sodium dodecyl sulfate polyacrylamide gel electrophoresis (SDS-PAGE), transferred onto nitrocellulose membranes (BioRad, CA) and immunoblotted using antibodies against the LDL receptor (Fitzgerald International, CA) and PCSK9 (Cayman Chemicals, MI). Horseradish peroxidase-conjugated antibodies (BioRad, CA) were used as secondary antibodies. Immunoreactive bands were visualized with a chemiluminescence kit (PerkinElmer Life Sciences, MA). The blots were exposed to KODAK Biomax films, and the signal was quantified by densitometry using Quantity One version 4.6.7. software (Bio Rad, CA).
# All of the experiments were performed at least three times and representative results are shown. Dose-response experiments were performed in HepG2 cells with 0, 10, 25, 50, 75 and 100 ng/mL of human resistin for 24 hours. Western blots were then performed on cell lysates to detect the cellular expression of LDL receptor protein.
# HepG2 cells [3] = test: real-time quantitative PCR of mRNA expression; type: cell-based, human; details: CP-346086 1.3 nM, 24 hours
# Method: Total RNA was isolated from cell lysates (RNeasy Mini Kit, Qiagen, Germantown, Md.) and used as a template for cDNA synthesis (QuantiTech Reverse Transcription Kit, Qiagen, Germantown, Md.). Quantitative real-time PCR was performed using an Applied Biosystems 7300 Real Time PCR system (Carlsbad, Calif.) according to the manufacturer's instructions and with the SYBR green master kit (Qiagen, Germantown, Md.). Primers for the real-time PCR internal control gene cyclophilin A (sense, 5′-[…]-3′ (SEQ ID NO:3); antisense, 5′-[…]-3′ (SEQ ID NO:4)) were synthesized (IDT, Coralville, Iowa). Primers for succinate degydrogenase (SDH) (another real-time PCR internal control gene), apoB, microsomal triglyceride transfer protein (MTP), Srebp1, Srebp2, acetyl-coA carboxylase (ACC), HMG-coA reductase, HMG-coA synthase, squalene synthase (SS), the LDL receptor, PCSK9, fatty acid synthase (FAS), […] (SCD), DGAT1 and DGAT2 were purchased (proprietary sequences not available) (Qiagen, Germantown, Md.). The values reported for each mRNA were corrected to the cyclophilin A and SDH mRNA values.
# Total RNA was isolated from cell lysates (RNeasy Mini Kit, Qiagen, MD) and used as a template for cDNA synthesis (QuantiTech Reverse Transcription Kit, Qiagen, MD). Quantitative real-time PCR was performed using an Applied Biosystems 7300 Real-Time PCR system (Carlsbad, Calif.) according to the manufacturer's instructions and with the SYBR green kit (Qiagen, MD). Primers for the real-time PCR internal control gene cyclophilin A, as identified in Example 1, were synthesized (IDT, IA). Primers for succinate dehydrogenase (SDH) (another real-time PCR internal control gene), SREBP2, HMG-CoA reductase, the LDL receptor and PCSK9 were purchased (proprietary sequences not available) (Qiagen, MD). The values reported for each mRNA were corrected to the cyclophilin A and SDH mRNA values.
# HepG2 cells [4] = test: apoB and apolipoprotein expression and secretion, immunoprecipitation and Western blot; type: cell-based, human; details: lactacystin 10 μM, 24 hours
# Method: During experiments in which HepG2 cells were treated with human recombinant resistin (Calbiochem, UK) the media was changed to 1% FBS-containing DMEM. […] In separate experiments, cells were treated with the fatty acid, oleate (100 μM) (Sigma, ON) for 24 hours, with or without human resistin (50 ng/mL) for 24 hours. In other experiments, cells were treated with the 10 μM lactacystin (Cayman Chemical, Ann Arbor, Mich.) for 24 hours to assess intracellular proteosome-dependent apoB protein degradation.
# Horseradish peroxidase-conjugated antibodies (BioRad, Hercules, Calif.) were used as secondary antibodies.
# All of the experiments to follow were performed three times and representative results are shown. […] Immunoprecipitation on cell lysates and media, followed by Western blots to detect the cellular expression and secretion of human apoB protein were then performed. The constitutively expressed cellular proteins, beta-actin and albumin were used as internal immunoblot controls to confirm equal protein loading in the apoB immunoblots of cell lysates and media, respectively. […] Treatment with 25 ng/mL resistin further stimulated apoB secretion by approximately 250% compared with untreated cells (FIG. 1A).
# [5] = system: RETN (human resistin gene); test: resistin siRNA transfection of HepG2 cells; type: cell-based; details: 10 nM siRNA, 24 or 48 hours
# Method: HepG2 cells were seeded 200,000 cells per well in a 6-well plate in 2300 uL of 10% FBS DMEM with antibiotics. Awaiting transfection, the cells were placed at 37° C. and 5% CO2. Next, 300 ng of siRNA against RETN (human resistin gene), with the sequence 5′[…] (SEQ ID NO: 5), purchased from Qiagen, MD, was diluted in 100 uL of serum free DMEM which yielded a final concentration of 10 nM once added to cells. 12 uL of HiPerfect Transfection reagent (Qiagen) was also added to the siRNA and mixed by pipetting. The siRNA mixture was allowed to form transfection complexes by incubation at room temperature for 7 minutes. The complexes were then added drop wise to the cells and incubated at 37° C. and 5% CO2 for 24 or 48 hours before harvest. Transfection efficiency was quantitatively measured by the fluorescently labeled scrambled negative control siRNA (Qiagen). siRNA knockdown efficiency was measured by positive control siGAPDH (Qigen) at the transcript and protein levels.
# [6] = CP-346086 1.3 nM with resistin 50 ng/mL, 24 hours
compound,measurement,setting,value
"O=C(Nc1ccc2c(c1)CCN(Cc1ncn[nH]1)C2)c1ccccc1-c1ccc(C(F)(F)F)cc1 [CP-346086, reference compound]",cell viability,HepG2 cells [1],did not reduce cell viability
same,effect on LDL receptor protein levels observed with resistin treatment,HepG2 cells [2]; [6],reversed the decline
same,effect on PCSK9 protein levels induced by resistin,HepG2 cells [2]; [6],reversed the increase
same,HMG-coA reductase mRNA expression,HepG2 cells [3],reduction
same,SREBP2 mRNA expression,HepG2 cells [3],reduction
"CC(=O)N[C@@H](CSC(=O)[C@]1([C@@H](O)C(C)C)NC(=O)[C@H](C)[C@@H]1O)C(=O)O [lactacystin, reference compound]",cellular expression and secretion of apoB,HepG2 cells [4],increase
"CC[C@H](C)C(=O)O[C@H]1C[C@@H](C)C=C2C=C[C@H](C)[C@H](CC[C@@H]3C[C@@H](O)CC(=O)O3)[C@H]21 [lovastatin, reference compound]",hepatocyte LDL receptor expression,HepG2 cells [2]; lovastatin 5 μM,increase
"Resistin siRNA: siRNA against RETN (human resistin gene), sequence 5′CCCTAATATTTAGGGCAATAA (SEQ ID NO: 5), Qiagen (listed as DNA, chemistry not given here)",cellular LDL receptor levels,[5],very effective in increasing
same,cellular PCSK9 levels,[5],reduction
same,cellular protein levels of resistin,[5],very effective in reducing
same,expression of apoB,[5],reducing the expression
